Reference: paper PMC3252747 (Bioorganic & medicinal chemistry letters, 2009)

Molecular target: cloned h5-HT2A receptor (Homo sapiens, UniProt P28223)
Assay: 5-HT2A competitive radioligand binding assay
Settings: ratio of H1 Ki to 5-HT2A Ki

cloned h5-HT2A receptor, sequence (P28223 whole entry): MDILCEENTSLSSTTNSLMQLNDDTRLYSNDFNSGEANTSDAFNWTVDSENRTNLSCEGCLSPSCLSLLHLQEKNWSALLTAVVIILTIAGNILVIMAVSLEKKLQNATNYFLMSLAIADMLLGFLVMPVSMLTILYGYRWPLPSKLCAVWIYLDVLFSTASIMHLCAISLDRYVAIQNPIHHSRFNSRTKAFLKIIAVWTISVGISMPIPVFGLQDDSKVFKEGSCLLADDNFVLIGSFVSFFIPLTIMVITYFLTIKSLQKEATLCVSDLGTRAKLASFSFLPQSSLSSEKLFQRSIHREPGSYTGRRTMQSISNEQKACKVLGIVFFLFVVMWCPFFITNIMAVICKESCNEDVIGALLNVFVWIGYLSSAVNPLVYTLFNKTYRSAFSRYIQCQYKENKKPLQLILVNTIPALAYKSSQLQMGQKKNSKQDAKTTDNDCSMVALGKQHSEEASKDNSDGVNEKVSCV

How did the “selectivity for 5-HT2A over the H1 receptor” value turn out when COc1ccc2c3c(ccc2c1)Cc1ccccc1C3CN (stereo not shown) [Compound 2b, (7,12-dihydrotetraphene-3-methoxy-12-yl)methanamine] was run?
The value was 100 fold.
